The text below walks through data of patent publication US20240277890A1, “ANTIMICROBIAL ARTICLES COMPRISING POLYURETHANE” (Amicoat AS, priority 2021, published 2024).

Converted amounts (≈) assume the structure as drawn.

This assay has as its system Propionibacterium acnes- antibiotic-resistant clinical isolate. The following applies: P. acnes antibiotic-resistant.

As a reminder, the MIC is the least concentration at which growth counts as inhibited. Low values mean inhibition by little substance, high ones a need for much substance.

For `CCCCCCNC(=O)[C@H](CCCNC(=N)N)NC(=O)[C@H](Cc1c(C(C)(C)C)[nH]c2c(C(C)(C)C)cc(C(C)(C)C)cc12)NC(=O)[C@@H](N)CCCNC(=N)N` [Compound 8], the minimum inhibitory concentration (MIC) was 2 µg/mL (≈ 2.6 µM).
